According to patent US11813333B2, “Use of high molecular weight polyethylene glycol compositions to restore the efficacy of pegylated therapeutic compositions” (THE UNIVERSITY OF NORTH CAROLINA AT CHAPEL HILL, priority 2017, dated 2023):

Key:
[1] = test system: anti-PEG antibodies (APA); settings: mouse, in vivo
Method: Adult BALB/c mice (18-22 weeks, female, Charles River) were passively immunized with APA by the intravenous administration of mouse anti-PEG IgG1 (Silver Lake Research, CH2076, lot K0868) 24 hours prior to the intravenous administration of PLD (3 mg/kg, Doxil®, Janssen Products, LP). […] Other groups received PBS 0.5 hours prior to the administration of PLD as a control. At time points of 0.083, 3, 6, 24, 48, and 96 hours following PLD administration, mice were anesthetized using ketamine (100 mg/kg, i.p.) and medetomidine hydrochloride (1 mg/kg, i.p.), then sacrificed via cardiac puncture (into sodium heparin vacutainers) and cervical dislocation. The blood, liver, spleen, and lungs were collected for doxorubicin quantification.
Briefly, blood samples were collected in sodium heparin tubes at 0.083, 3, 6, 24, 48 and 96 hours after the administration of PLD. Blood was centrifuged at 1,500 g for 5 minutes to obtain plasma. Encapsulated and released doxorubicin in plasma were separated using solid phase separation. Tissues of interest were flash frozen in liquid nitrogen and stored at −80° C. until processing. Upon processing, tissues were thawed, weighed, and diluted in a 1:3 ratio with phosphate buffered saline prior to homogenizing with a Precellys 24 bead mill homogenizer (Omni International Inc, Kennesaw, GA). Samples were further processed by addition of 800 μL extraction solution (acetonitrile with 100 ng/mL daunorubicin internal standard) to 200 μL of plasma or tissue homogenate. The samples were vortexed for 10 minutes and centrifuged at 10,000 g for 10 minutes at 4° C. […] The samples were then vortexed, transferred to autosampler vials, and analyzed by high-performance liquid chromatography with fluorescence detection (HPLC-FL) set to excitation wavelength 490 nm/emission wavelength 590 nm. […] Samples that returned a concentration above the quantitative limit were diluted to fall within the quantitative range and reinjected.

[2] = test system: anti-PEG antibodies (APA); settings: patients with chronic refractory gout; cited from earlier work

Substance: polyethylene glycol [PEG 10 kDa]
- time by which the vast majority of the PLD is found in the liver (delayed hepatic accumulation) [1]: 3 h

Substance: polyethylene glycol [PEG 40 kDa]
- time by which the vast majority of the PLD is found in the liver (delayed hepatic accumulation) [1]: 96 h

Substance: pegloticase
- fraction of patients that developed APA leading to rapid clearance of the enzyme from the blood [2]: roughly one-third

Substance: polyethylene glycol [PEG 20 kDa]
- time by which the vast majority of the PLD is found in the liver (delayed hepatic accumulation) [1]: 24 h
